Source: the supplement of paper PMC9013687

Assays:
Danio rerio embryo [1] = assay: EC20 Head size_Decrease; higher = less potent; conditions: exposure time: 4 dpf
Method: (§1)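 Zebrafish embryos (UFZ-OBI strain) were exposed from 2 hpf for 48 h (2 dpf) or 96 h (4 dpf) at 28 °C; spontaneous tail coiling was scored at 25 hpf. Morphological features from automated image analysis (FishInspector), heart rate and locomotor response were fitted with drc models. Quantal endpoints were dichotomised at 2.5 SD from controls and fitted with a log-logistic model; heart rate, pigmentation and STC were normalised to the replicate control mean. Betamethasone was tested as betamethasone dipropionate, diflorasone as diflorasone diacetate.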

Danio rerio embryo [2] = assay: EC20 Body length_Decrease; higher = less potent; conditions: exposure time: 2 dpf
Method: as §1

Danio rerio embryo [3] = assay: EC10 Body length_Decrease; higher = less potent; conditions: exposure time: 2 dpf
Method: as §1

Danio rerio embryo [4] = system: Danio rerio embryo
Method: as §1

Danio rerio embryo [5] = assay: EC10 Any effect; higher = less potent
Method: as §1

Danio rerio embryo [6] = assay: EC50 Head size_Decrease; conditions: exposure time: 4 dpf
Method: as §1

Danio rerio embryo [7] = assay: EC10 Head size_Decrease; higher = less potent; conditions: exposure time: 4 dpf
Method: as §1

Danio rerio embryo [8] = assay: EC10 Lack of SB; higher = less potent; conditions: exposure time: 4 dpf
Method: as §1

Danio rerio embryo [9] = assay: EC50 Bladder size_Decrease; conditions: exposure time: 4 dpf
Method: as §1

Danio rerio embryo [10] = assay: EC20 Lack of SB; higher = less potent; conditions: exposure time: 4 dpf
Method: as §1

Danio rerio embryo [11] = assay: EC20 Any effect; higher = less potent
Method: as §1

Danio rerio embryo [12] = assay: EC20 Bladder size_Decrease; higher = less potent; conditions: exposure time: 4 dpf
Method: as §1

Danio rerio embryo [13] = assay: EC10 Bladder size_Decrease; higher = less potent; conditions: exposure time: 4 dpf
Method: as §1

Danio rerio embryo [14] = assay: spontaneous tail coiling frequency (coils/min/embryo); higher = more spontaneous movement; conditions: 25 hpf
Method: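 Spontaneous tail coilings of zebrafish embryos exposed from 2 hpf were recorded at 24-25 hpf in 1-min videos and detected by a KNIME workflow from grey-value variance. Betamethasone was tested as the dipropionate, diflorasone as the diacetate.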

Danio rerio embryo [15] = conditions: exposure time: 4 dpf
Method: as §1

Danio rerio embryo [16] = assay: EC50 Body length_Decrease; conditions: exposure time: 2 dpf
Method: as §1

COc1cccc2c1C(=O)c1c(O)c3c(c(O)c1C2=O)C[C@@](O)(C(C)=O)C[C@@H]3O[C@H]1C[C@H](N)[C@H](O)[C@H](C)O1 [Daunorubicin]
Conditions	EC10 Bladder size Decrease [µM]	EC10 Body length Decrease [µM]	EC10 Head size Decrease [µM]	EC10 Lack of SB [µM]	EC20 Bladder size Decrease [µM]	EC20 Body length Decrease [µM]	EC20 Head size Decrease [µM]	EC20 Lack of SB [µM]	EC50 Bladder size Decrease [µM]	EC50 Body length Decrease [µM]	EC50 Head size Decrease [µM]	EC50 Lack of SB [µM]
Danio rerio embryo [1]	–	–	–	–	–	–	19.7	–	–	–	–	–
Danio rerio embryo [2]	–	–	–	–	–	80.4	–	–	–	–	–	–
Danio rerio embryo [3]	–	68.5	–	–	–	–	–	–	–	–	–	–
Danio rerio embryo [6]	–	–	–	–	–	–	–	–	–	–	43.4	–
Danio rerio embryo [7]	–	–	12.4	–	–	–	–	–	–	–	–	–
Danio rerio embryo [8]	–	–	–	13.3	–	–	–	–	–	–	–	–
Danio rerio embryo [9]	–	–	–	–	–	–	–	–	46.8	–	–	–
Danio rerio embryo [10]	–	–	–	–	–	–	–	24.9	–	–	–	–
Danio rerio embryo [12]	–	–	–	–	17.5	–	–	–	–	–	–	–
Danio rerio embryo [13]	9.82	–	–	–	–	–	–	–	–	–	–	–
Danio rerio embryo [15]	–	–	–	–	–	–	–	–	–	–	–	72.3
Danio rerio embryo [16]	–	–	–	–	–	–	–	–	–	106	–	–

Conditions	EC10 Any effect [µM]	EC20 Any effect [µM]	EC50 Any effect [µM]	spontaneous tail coiling frequency
Danio rerio embryo [4], exposure time: 2 dpf	–	–	185	–
Danio rerio embryo [4], exposure time: 4 dpf	–	–	90.6	–
Danio rerio embryo [5], exposure time: 2 dpf	38.3	–	–	–
Danio rerio embryo [5], exposure time: 4 dpf	85.9	–	–	–
Danio rerio embryo [11], exposure time: 2 dpf	–	68.6	–	–
Danio rerio embryo [11], exposure time: 4 dpf	–	87.6	–	–
Danio rerio embryo [14], 17.5 µM	–	–	–	2.64
Danio rerio embryo [14], 23.3 µM	–	–	–	1.8
Danio rerio embryo [14], 26.3 µM	–	–	–	3.47
Danio rerio embryo [14], 35 µM	–	–	–	2.25
Danio rerio embryo [14], 39.4 µM	–	–	–	2.69
Danio rerio embryo [14], 52.5 µM	–	–	–	2.33
Danio rerio embryo [14], 59.1 µM	–	–	–	2.7
Danio rerio embryo [14], 78.8 µM	–	–	–	2.14
Danio rerio embryo [14], 88.7 µM	–	–	–	2.85
